pIC50: −log10 of the molar value. Positions of bridges follow the written chain, without caps; N, C: chain ends. Non-standard residues stand in square brackets, D forms with d. Residues, ends and D or L forms follow the SMILES beside them. *: point of attachment. hPhe(3-Cl-4-CF3) = N[C@@H](CCc1ccc(C(F)(F)F)c(Cl)c1)C(=O)O; NMePhe(4-Cl) = CN[C@@H](Cc1ccc(Cl)cc1)C(=O)O; NMePhe(4-Me) = CN[C@@H](Cc1ccc(C)cc1)C(=O)O; hPhe(4-Cl) = N[C@@H](CCc1ccc(Cl)cc1)C(=O)O; Phe(2-OMe) = COc1ccccc1C[C@H](N)C(=O)O; Phe(3-I) = N[C@@H](Cc1cccc(I)c1)C(=O)O; Phe(3-Me) = Cc1cccc(C[C@H](N)C(=O)O)c1; NMeGly(cBu) = CN[C@H](C(=O)O)C1CCC1; NMeCha = CN[C@@H](CC1CCCCC1)C(=O)O; NMeF = CN[C@@H](Cc1ccccc1)C(=O)O; hPhe = N[C@@H](CCc1ccccc1)C(=O)O; N(CH2CH2)2CF2 = FC1(F)CCN(*)CC1; NMeD = CN[C@@H](CC(=O)O)C(=O)O; NMeL = CN[C@@H](CC(C)C)C(=O)O; Cba = N[C@@H](CC1CCC1)C(=O)O; NMeV = CN[C@H](C(=O)O)C(C)C; d(β3hA) = C[C@@H](N)CC(=O)O; NMeA = CN[C@@H](C)C(=O)O; NMeAib = CNC(C)(C)C(=O)O; Piperidide = C1CCN(*)CC1; Pyrrolidide = C1CCN(*)C1; Ac5c = NC1(C(=O)O)CCCC1; Aze = O=C(O)[C@@H]1CCN1; Thp = NC1(C(=O)O)CCOCC1; Abu = CC[C@H](N)C(=O)O; Aib = CC(C)(N)C(=O)O; Sar = CNCC(=O)O
The molecules below were run against T1, Kras and SOS1 (biotin-tagged human Kras loaded with GDP, His-tagged human SOS1) (Homo sapiens, UniProt P01116, G12D) (assay: Protein-protein interaction inhibition between Kras and SOS1 (KrasGl2D-SOS PPI) using AlphaScreen). Details: AlphaScreen; biotin-tagged human Kras loaded with GDP, His-tagged human SOS1; read-out: KRAS G12D-SOS PPI IC50.
T1 construct: made in house; host or cells: E. coli (stated for Kras only)
T1 sequence (P01116 1-188 isoform P01116-2 G12D): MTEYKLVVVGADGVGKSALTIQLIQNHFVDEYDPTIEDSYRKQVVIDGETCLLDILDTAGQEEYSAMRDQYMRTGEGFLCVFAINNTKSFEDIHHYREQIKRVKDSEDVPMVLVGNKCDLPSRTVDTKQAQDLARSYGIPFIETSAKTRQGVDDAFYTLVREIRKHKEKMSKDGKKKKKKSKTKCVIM
Format: binding
Method in brief: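 Energy transfer from nickel-chelate donor beads bound to His-SOS1 to streptavidin acceptor beads bound to biotin-Kras, expressed in E. coli and loaded with GDP after purification, was monitored. Donors were excited at 680 nm; singlet oxygen reaching acceptors gave emission read at 520-620 nm.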

SMILES | pIC50
CC[C@H](C)[C@@H]1NC(=O)[C@H](CC(C)C)N(C)C(=O)C[C@@H](C(=O)N2CCCCC2)N(C)C(=O)[C@H](CC(C)C)NC(=O)C(C)(C)N(C)C(=O)[C@H](CCc2ccccc2)NC(=O)[C@H](Cc2cccc(I)c2)NC(=O)CN(C)C(=O)[C@H](Cc2ccc(C)cc2)N(C)C(=O)[C@@H]2CCN2C(=O)CN(C)C1=O [Compound 442] ([NMeL]I[Sar][Aze][NMePhe(4-Me)][Sar][Phe(3-I)][hPhe][NMeAib]L[NMeD]-Piperidide; lactam N-11) | 7.15
CC[C@H](C)[C@@H]1NC(=O)[C@H](CC(C)C)N(C)C(=O)C[C@@H](C(=O)N2CCCCC2)N(C)C(=O)[C@H](C(C)C)N(C)C(=O)[C@H](C)NC(=O)[C@H](CC(=O)N2CCC(F)(F)CC2)N(C)C(=O)[C@H](CCc2ccc(C(F)(F)F)c(Cl)c2)NC(=O)CN(C)C(=O)[C@H](CC2CCCCC2)N(C)C(=O)CN(C)C(=O)CN(C)C1=O [Compound 444] ([NMeL]I[Sar][Sar][NMeCha][Sar][hPhe(3-Cl-4-CF3)][NMeD](N(CH2CH2)2CF2)A[NMeV][NMeD]-Piperidide; lactam N-11) | 7.74
CC[C@H](C)[C@@H]1NC(=O)[C@H](C)N(C)C(=O)C[C@@H](C(=O)N2CCCCC2)N(C)C(=O)[C@H](C(C)C)N(C)C(=O)C2(CCCC2)NC(=O)[C@@H]2CCCN2C(=O)[C@H](CCc2ccc(C(F)(F)F)c(Cl)c2)NC(=O)[C@H]2CCCN2C(=O)[C@H](CC2CCCCC2)N(C)C(=O)[C@@H]2CCN2C(=O)CN(C)C1=O [Compound 447] ([NMeA]I[Sar][Aze][NMeCha][dP][hPhe(3-Cl-4-CF3)]P[Ac5c][NMeV][NMeD]-Piperidide; lactam N-11) | 7.85
CC[C@H](C)[C@@H]1NC(=O)[C@H](CC(C)C)N(C)C(=O)C[C@@H](C(=O)N2CCCCC2)N(C)C(=O)[C@H](C(C)C)N(C)C(=O)C2(CCOCC2)NC(=O)[C@@H]2CCCN2C(=O)[C@H](CCc2ccc(Cl)cc2)NC(=O)CN(C)C(=O)[C@H](CC2CCCCC2)N(C)C(=O)CN(C)C(=O)CN(C)C1=O [Compound 448] ([NMeL]I[Sar][Sar][NMeCha][Sar][hPhe(4-Cl)]P[Thp][NMeV][NMeD]-Piperidide; lactam N-11) | 7.04
CC(C)C[C@H]1C(=O)N[C@@H](CC2CCC2)C(=O)N(C)CC(=O)N(C)CC(=O)N(C)[C@@H](CC2CCCCC2)C(=O)N(C)CC(=O)N[C@@H](CCc2ccc(C(F)(F)F)c(Cl)c2)C(=O)N2CCC[C@H]2C(=O)NC2(CCCC2)C(=O)N(C)[C@@H](C(C)C)C(=O)N(C)[C@H](C(=O)N2CCCCC2)CC(=O)N1C [Compound 451] ([NMeL][Cba][Sar][Sar][NMeCha][Sar][hPhe(3-Cl-4-CF3)]P[Ac5c][NMeV][NMeD]-Piperidide; lactam N-11) | 8.00
CC[C@@H]1NC(=O)[C@H](Cc2cccc(I)c2)NC(=O)CN(C)C(=O)[C@H](Cc2ccc(Cl)cc2)N(C)C(=O)CN(C)C(=O)CN(C)C(=O)[C@H]([C@@H](C)CC)NC(=O)[C@H](CC(C)C)N(C)C(=O)C[C@@H](C(=O)N2CCCCC2)N(C)C(=O)[C@H](CC(C)C)NC(=O)C(C)(C)N(C)C1=O [Compound 457] ([NMeL]I[Sar][Sar][NMePhe(4-Cl)][Sar][Phe(3-I)][Abu][NMeAib]L[NMeD]-Piperidide; lactam N-11) | 7.16
CC[C@H](C)[C@@H]1NC(=O)[C@H](CC(C)C)N(C)C(=O)C[C@@H](C(=O)N2CCCCC2)N(C)C(=O)[C@H](CC(C)C)NC(=O)C(C)(C)N(C)C(=O)[C@H](Cc2ccccc2OC)NC(=O)[C@H](Cc2cccc(I)c2)NC(=O)CN(C)C(=O)[C@H](Cc2ccc(C)cc2)N(C)C(=O)[C@@H]2CCN2C(=O)CN(C)C1=O [Compound 459] ([NMeL]I[Sar][Aze][NMePhe(4-Me)][Sar][Phe(3-I)][Phe(2-OMe)][NMeAib]L[NMeD]-Piperidide; lactam N-11) | 8.02
CC[C@H](C)[C@@H]1NC(=O)[C@H](CC(C)C)N(C)C(=O)C[C@@H](C(=O)N2CCCCC2)N(C)C(=O)[C@H](C(C)C)N(C)C(=O)C(C)(C)NC(=O)[C@H](CC(=O)N2CCC(F)(F)CC2)N(C)C(=O)[C@H](CCc2ccc(C(F)(F)F)c(Cl)c2)NC(=O)CN(C)C(=O)[C@H](CC2CCCCC2)N(C)C(=O)CN(C)C(=O)CN(C)C1=O [Compound 463] ([NMeL]I[Sar][Sar][NMeCha][Sar][hPhe(3-Cl-4-CF3)][NMeD](N(CH2CH2)2CF2)[Aib][NMeV][NMeD]-Piperidide; lactam N-11) | 8.36
CC[C@H](C)[C@@H]1NC(=O)[C@H](C2CCC2)N(C)C(=O)C[C@@H](C)NC(=O)[C@H](C(C)C)N(C)C(=O)C2(CCCC2)NC(=O)[C@@H]2CCCN2C(=O)[C@H](CCc2ccc(C(F)(F)F)c(Cl)c2)NC(=O)CN(C)C(=O)[C@H](CC2CCCCC2)N(C)C(=O)[C@@H]2CCN2C(=O)[C@H](C)N(C)C1=O [Compound 465] (cyclo([Ac5c][NMeV][d(β3hA)][NMeGly(cBu)]I[NMeA][Aze][NMeCha][Sar][hPhe(3-Cl-4-CF3)]P)) | 7.26
CC[C@H](C)[C@@H]1NC(=O)[C@H](C)N(C)C(=O)C[C@@H](C(=O)N2CCCC2)NC(=O)[C@H](C(C)C)N(C)C(=O)[C@H](Cc2ccccc2)N(C)C(=O)[C@H](Cc2ccccc2)NC(=O)[C@H](Cc2cccc(C)c2)NC(=O)CN(C)C(=O)[C@H](Cc2ccc(Cl)cc2)N(C)C(=O)CN(C)C(=O)CN(C)C1=O [Compound 467] ([NMeA]I[Sar][Sar][NMePhe(4-Cl)][Sar][Phe(3-Me)]F[NMeF][NMeV]D-Pyrrolidide; lactam N-11) | 6.70

— patent US12371454B2, “Cyclic peptide compound having Kras inhibitory action” (priority 2019, dated 2025)
